The source of these data is patent US20240425529A1, “BORIC ACID DERIVATIVE” (SHOUYAO HOLDINGS (BEIJING) CO., LTD., priority 2021, published 2024).

Structures are written as SMILES. pIC50: −log10 of the molar value.

Test [1] addresses T1, LMP7 (Homo sapiens, UniProt P28062).
T1 construct: using MOLT-4 cell lysate as the enzyme source of LMP7; endogenous in cells; host or cells: MOLT-4 (human acute lymphoblastic leukemia cells)
Description: Cytological inhibitory activity on LMP7 in MOLT-4 cells. The format is cell-based. Conditions: incubation for 2 hours with compound, read-out: Cytological activity data LMP7 Activity (MOLT-4Cell). The procedure: MOLT-4 are human acute lymphoblastic leukemia cells and have been identified as cells with high expression of LMP7. In this experiment, the compounds were pre-incubated with MOLT-4, and Ac-ANW-AMC (BonstonBiochem, Cat #S-320) was used as the substrate of LMP7 to establish the detection method for the enzymatic activity of LMP7 in cells and detect the compound inhibitory activity (half inhibitory concentration, IC50).
Cells were plated in a 24-well plate (Corning) at a concentration of 1.5×10^5/ml per well. The next day compounds were prepared and diluted in a 5-fold gradient from 2 mM in 100% DMSO for a total of 8 concentrations. 2 μl for each concentration of the compound was added to a 1-ml cell culture medium, supplemented with 1 ml of RPMI-1640 only (final FBS concentration 5%, v/v). The compounds were mixed with the cells. After incubation for 2 hours in the incubator, the cells were centrifuged at 2000 rpm for 8 minutes to discard the supernatant. The cells were washed once with 2 ml PBS (Solarbio), and centrifuged again to discard the supernatant. The cells were resuspended in 100 μl of lysis buffer (20 mM Tris, pH 8.0, 5 mM EDTA, plus Protease inhibitor (1: 100) and Phosphatase Inhibitor (1:100) when used) and left in a 4° C. refrigerator for 45 minutes.
After 2 min. of centrifuge at 2000 rpm, the lysate was transferred from the 24-well plate to a 96-well plate, and centrifuged at 2000 rpm, 4° C., for 15 min. The supernatant was the lysate. Protein quantification was performed using the BCA method (Thermo, #23225). A 2* lysate was prepared with the reaction buffer (20 mM Tris, pH 8.0, 0.5 mM EDTA) at a final concentration of 20 ng/μl. 2* Ac-ANW-AMC was prepared with the reaction buffer at a final concentration of 100 μM. 10 µl of 2* lysate was added to a 384-well plate (OptiPlate-384, purchased from PerkinElmer), and added with 10 W of 2* Ac-ANW-AMC. The reaction was started by centrifugation at 23° C. in the dark for 1 hour. After completion of the reaction, the signal value (excitation wavelength 345 nm/emission wavelength 445 nm) was read on the CLARIO starPlus (purchased from BMG LRBTECH). Enzyme activity was determined at 8 concentrations for each compound, and data were processed using the GraphPad Prism software to calculate the half inhibitory concentration of the compound on LMP7 hydrolase in MOLT-4 cells, i.e. the IC50 value.

The target of the next test is T2, β5 (Homo sapiens, UniProt P28074).
T2 construct: using HEK-293 cell lysate as the enzyme source of D5; endogenous in cells; host or cells: HEK-293 (human embryonic kidney cells)
As to the kind of experiment: Enzymatic inhibitory activity on β5 (HEK-293 cell lysate, Ac-WLA-AMC substrate). Conditions: 1 hour pre-incubation. The format is biochemical. The text has this:
β5 is a catalytic subunit of immunoproteasomes. In this experiment, an enzymatic detection platform was established using its hydrolytic enzyme activity and used for compound activity detection. Using Ac-WLA-AMC (Bonston Biochem, Cat #5-330) as a substrate for D5, the amount of fluorescent group AMC (7-amino-4-methylcoumarin) released after hydrolysis can reflect the enzymatic activity. […] We established an enzymatic detection method for compound inhibition on D5 using HEK-293 cell lysate as the enzyme source of D5 and detected the compound inhibitory activity (half inhibitory concentration, IC50). The enzymatic inhibitory activity of compounds against D5 was used as a measure index of compound selectivity.
(§1) HEK-293 cells were cultured in a 75 cm^2 cell culture flask (Corning) (37° C., 95% air, and 5% CO2) with DMEM (Biological Industries) medium containing 10% fetal bovine serum (Biological Industries) and 1% Pen Strep (Gibco) and passaged 2-3 times one week. 1×10^7 HEK-293 cells were collected, resuspended in 1 ml of PBS (Solarbio), and centrifuged at 3000 rpm for 5 minutes. The supernatant was aspirated off. The cells were resuspended in 500 μl of lysis buffer (20 mM Tris, pH 8.0, 5 mM EDTA, plus Protease inhibitor (1:1000) and Phosphatase Inhibitor (1:100) when used) and left on ice for 30 minutes. The cells were broken by supersonic technique, 0.5 S on, 0.5 S off, for 2.5 S. The centrifuge was performed at 12000 rpm, 4° C. for 10 minutes. The supernatant was the cell lysate and protein quantification was performed using the BCA method (Thermo, #23225).
Compounds were diluted in a 5-fold gradient with 100% DMSO for a total of 9 concentrations. 2 W for each concentration was added to a 48-μl reaction buffer (20 mM Tris, pH 8.0, 0.5 mM EDTA) and mixed well as 4* compound (final concentrations: 100000, 20000, 4000, 800, 160, 32, 6.4, 1.28, and 0 nM) for later use. A reaction buffer was used to prepare 4*HEK-293 cell lysate at a final concentration of 25 ng/μl and 2*Ac-WLA-AMC at a final concentration of 20 μM. 5 W of 4* compound was added to a 384-well plate (OptiPlate-384, purchased from PerkinElmer), added with 5 W of 4*HEK-293 cell lysate, centrifuged, and reacted in an incubator at 23° C. for 1 hour. 10 W of 2* Ac-WLA-AMC was added and the reaction was started by centrifugation at 23° C. in the dark for 2 hours. After completion of the reaction, the signal value (excitation wavelength 345 nm/emission wavelength 445 nm) was read on the CLARIO star^Plus (purchased from BMG LRBTECH). Enzyme activity was determined at 9 concentrations for each compound, and data were processed using the GraphPad Prism software to calculate the half inhibitory concentration of the compound on D5, i.e. the IC50 value.

Test [2] addresses T1, LMP7. As to the kind of experiment: Enzymatic inhibitory activity on LMP7 (MOLT-4 cell lysate, Ac-ANW-AMC substrate). Format: biochemical. The conditions noted are these: 1 hour pre-incubation.
Excerpt: LMP7 is a catalytic subunit of immunoproteasomes. In this experiment, an enzymatic detection platform was established using its hydrolytic enzyme activity and used for compound activity detection. Using Ac-ANW-AMC (Bonston Biochem, Cat #S-320) as a substrate for LMP7, the amount of fluorescent group AMC (7-amino-4-methylcoumarin) released after hydrolysis can reflect the enzymatic activity. MOLT-4 cells are human acute lymphoblastic leukemia cells and have been identified as cells with high expression of LMP7. We established an enzymatic detection method for compound inhibition on LMP7 using MOLT-4 cell lysate as the enzyme source of LMP7 and detected the compound inhibitory activity (half inhibitory concentration, IC50).
as §1, with “MOLT-4 cells were” for “HEK-293 cells were”, “CO2) with RPMI-1640 (Biological Industries)” for “CO2) with DMEM (Biological Industries)”, “week. 1×10^7 MOLT-4 cells were” for “week. 1×10^7 HEK-293 cells were”, “was performed by using the” for “was performed using the”
Compounds were diluted in a 5-fold gradient with 100% DMSO for a total of 9 concentrations: 2 W for each concentration was added to a 48-μl reaction buffer (20 mM Tris, pH 8.0, 0.5 mM EDTA) and mixed well as 4* compound (final concentrations: 2000, 400, 80, 16, 3.2, 0.64, 0.128, 0.0256, and 0 nM) for later use. A reaction buffer was used to prepare 4* MOLT-4 cell lysate at a final concentration of 20 ng/μl and 2*Ac-ANW-AMC at a final concentration of 100 µM. 5 μl of 4* compound was added to a 384-well plate (OptiPlate-384, purchased from PerkinElmer), added with 5 W of 4* cell lysate, centrifuged, and reacted in an incubator at 23° C. for 1 hour. 10 W of 2* Ac-ANW-AMC was added and the reaction was started by centrifugation at 23° C. in the dark for 2 hours. After completion of the reaction, the signal value (excitation wavelength 345 nm/emission wavelength 445 nm) was read on the CLARIO star^Plus (purchased from BMG LRBTECH). Enzyme activity was determined at 9 concentrations for each compound, and data were processed using the GraphPad Prism software to calculate the half inhibitory concentration of the compound on LMP7, i.e. the IC50 value.

`CC1(C)[C@@H]2C[C@H]3OB([C@H](Cc4coc5ccccc45)NC(=O)C(=O)N[C@@H]4C[C@H]5CC[C@@H]4O5)O[C@@]3(C)[C@H]1C2` [Ex. 51, ((R)-1-(2-(((1S,2R,4R)-7-oxabicyclo[2.2.1]heptan-2-yl)amino)-2-oxoacetamido)-2-(benzofuran-3-yl)ethyl)boronic acid (1S,2S,3R,5S)-(+)-pinane-2,3-diol ester]: the figures for the pIC50 on LMP7 [1], against β5 and at LMP7 [2] were 8.41, 7.13 and 8.51, respectively.
For `O=C(N[C@@H]1CCOC1)C(=O)N[C@@H](Cc1coc2ccccc12)B(O)O` [Ex. 44, ((R)-2-(benzofuran-3-yl)-1-(2-oxo-2(((R)-tetrahydrofuran-3-yl)amino)acetamido)ethyl) boronic acid], the results for the pIC50 on LMP7 [1], on β5 and against LMP7 [2] were 7.80, 7.27 and 8.31, respectively.
Consider `CCN(CC)C(=O)C(=O)N[C@@H](Cc1coc2ccccc12)B(O)O` [Ex. 4, (R)-(2-(benzofuran-3-yl)-1-(2-(diethylamino)-2-oxoacetamido)ethyl)boronic acid], for which, at LMP7 [2], the pIC50 was 7.65.
Regarding `CC1(C)COB([C@H](Cc2coc3ccccc23)NC(=O)C(=O)Nc2cnccn2)OC1` [Ex. 71], the values for the pIC50 on LMP7 [1], against β5 and at LMP7 [2] were 8.87, 7.55 and 8.93, respectively.
The like results for `CC1(C)[C@@H]2C[C@H]3OB([C@H](Cc4coc5ccccc45)NC(=O)C(=O)Nc4ccccc4F)O[C@@]3(C)[C@H]1C2` [Ex. 52, (R)-(2-(benzofuran-3-yl)-1-(2-oxo-2-(2-fluorophenylamino)acetamido)ethyl) boronic acid (1S,2S,3R,5S)-(+)-pinane-2,3-diol ester] were, in that order, 8.31, 7.49 and 8.79.
Regarding `CN(C)c1ccnc(NC(=O)C(=O)N[C@@H](Cc2coc3ccccc23)B(O)O)c1` [Ex. 50, (R)-(2-(benzofuran-3-yl)-1-(2-oxo-2-((4-dimethylaminopyridin-2-yl)amino)acetamido)ethyl)boronic acid], the results for the pIC50 on LMP7 [1], against β5 and against LMP7 [2] were 8.10, 6.45 and 8.22, respectively.
`C[C@@H](NC(=O)C(=O)N[C@@H](Cc1coc2ccccc12)B(O)O)c1ccccn1` [Ex. 8, ((R)-2-(benzofuran-3-yl)-1-(2-oxo-2-(((R)-1-(pyridin-2-yl)ethyl)amino)acetamido)ethyl)boronic acid]: the pIC50 on LMP7 [2] is 7.61.
The compound `CN(C)C(=O)C(=O)N[C@@H](Cc1coc2ccccc12)B(O)O` [Ex. 6, (R)-(2-(benzofuran-3-yl)-1-(2-(dimethylamino)-2-oxoacetamido)ethyl)boronic acid] showed a pIC50 against LMP7 [2] of 7.55.
On the same count and under the same terms, the same measure for `CNC(=O)C(=O)N[C@@H](Cc1coc2ccccc12)B(O)O` [Ex. 2, (R)-(2-(benzofuran-3-yl)-1-(2-(methylamino)-2-oxoacetamido)ethyl)boronic acid]: 7.57.
With `O=C(N[C@H]1CCOC1)C(=O)N[C@@H](Cc1coc2ccccc12)B(O)O` [Ex. 7, ((R)-2-(benzofuran-3-yl)-1-(2-oxo-2(((S)-tetrahydrofuran-3-yl)amino)acetamido)ethyl) boronic acid], the pIC50 is 6.91 at β5 and 8.11 at LMP7 [2].
The corresponding values for `O=C(NC1CCOCC1)C(=O)N[C@@H](Cc1coc2ccccc12)B(O)O` [Ex. 11, (R)-(2-(benzofuran-3-yl)-1-(2-oxo-2-((tetrahydro-2H-pyran-4-yl)amino)acetamido)ethyl)boronic acid] are 6.91 and 8.14.
The corresponding values for `O=C1CC[C@H](N2C(=O)c3ccc(N4CCN(CC5CCN(C(=O)C(=O)N[C@@H](Cc6coc7ccccc67)B(O)O)CC5)CC4)cc3C2=O)C(=O)N1` [Ex. 16, ((R)-2-(benzofuran-3-yl)-1-(2-(4-((4-(2-((S)-2,6-dioxopiperidin-3-yl)-1,3-dioxoisoindolin-5-yl)piperazin-1-yl)methyl)piperidin-1-yl)-2-oxoacetamido)ethyl)boronic acid] are 7.23 and 7.48.
For `CON(C)C(=O)C(=O)N[C@@H](Cc1coc2ccccc12)B(O)O` [Ex. 3, (R)-(2-(benzofuran-3-yl)-1-(2-(methoxy(methyl)amino)-2-oxoacetamido)ethyl) boronic acid], the pIC50 against β5 was 6.29; on LMP7 [2], 7.89.
